Assay results published in patent US7884117B2, “Carbonylamino pyrrolopyrazoles, potent kinase inhibitors” (Pfizer Inc., priority 2005, dated 2011).
Where “and” joins values, the source holds several entries; their conditions need not be identical. Equal values may be shown once. Entries after “also recorded” stand apart in the source; their conditions may differ.

Assays:
[1] = target: T1, PAK4 Kinase domain (PAK4 KD) (Homo sapiens, UniProt O96013); assay: PAK4 kinase domain enzymatic assay (PK/LDH-coupled, Ki); type: biochemical; conditions: PAK4 Kinase Domain
T1 construct: Cloning, expression, and purification of recombinant PAK4 Kinase domain (PAK4 KD); His tag (pET28a(+)/pET24a(+), Ni-NTA purification) (N, cleaved yes); GST (pGST4.5, glutathione column) (N, cleaved yes); made in house; host or cells: E. coli BL21(DE3)
T1 sequence (O96013 321-572 limits assumed): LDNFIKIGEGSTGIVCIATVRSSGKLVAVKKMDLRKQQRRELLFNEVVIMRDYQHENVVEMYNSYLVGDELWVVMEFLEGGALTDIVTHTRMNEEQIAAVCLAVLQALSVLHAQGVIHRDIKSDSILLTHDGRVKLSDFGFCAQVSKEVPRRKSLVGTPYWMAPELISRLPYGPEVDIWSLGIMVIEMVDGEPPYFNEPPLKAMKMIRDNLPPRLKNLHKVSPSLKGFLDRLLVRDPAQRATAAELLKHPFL

[2] = target: T2, PAK4 kinase activity in whole cells (TR-293-KDG, modified HEK 293) (Homo sapiens, UniProt O96013); assay: PAK4 cellular assay: sandwich ELISA of PAK4-dependent phosphorylation of GEF-H1b in TR-293-KDG cells; type: cell-based; conditions: 3-hour exposure
T2 construct: engineered to overexpress both GEF-H1b and the kinase domain (KD) of PAK4; expressed in transfected cells; host or cells: TR-293-KDG (modified HEK 293, Trex system, Invitrogen)
T2 sequence (O96013 321-572 limits assumed): as above
Protocol: A sandwich ELISA method was used to measure the PAK4 kinase activity in whole cells. The level of PAK4-dependent phosphorylation of GEF-H1b can be determined by monitoring the binding of a phosphospecific antibody to GEF-H1b. […] The KD of PAK4 is inducible in this cell line by tetracycline (Trex system, Invitrogen). […] To establish a phosphorylation event on GEF-HL, cells are induced with doxycycline to express the PAK4 KD. […] Candidate substance effect is measured as the ability to block this phosphorylation event.
ELISA plate was prepared by pre-coating the plates with a capture antibody (α-HA-tag mouse monoclonal antibody), blocked with BSA, and washed in 0.1% tween 20 in tris-buffered saline (TBST). […] Cells were then lysed with a modified RIPA buffer supplemented with protease inhibitors. […] Between all subsequent steps plates were washed 4 times with TBST. Detection antibody (recognizing the phospho-specific eptitope on GEF-H1b) was added for 1 hour, followed by addition of an enzyme linked goat α-rabbit secondary antibody for 45 minutes. […] EC50 values were calculated by sigmoid curve fitting using a four-parameter analysis.

[3] = test system: HCT116 human colorectal carcinoma tumor xenografts; assay: Tumor growth inhibition and tumor growth delay of HCT116 xenografts in athymic mice; type: in vivo; conditions: for Tumor growth inhibition (TGI) % TGImax d39 / Tumor growth delay T-C1250 mm3: oral gavage; for Tumor growth inhibition (TGI) % TGImax d39: day 39, vs vehicle; for Tumor growth delay T-C1250 mm3: evaluation size 1250 mm3
Protocol: Material and preparation: The HCT116 cell line was obtained from American Type Culture Collection (ATCC, Bethesda, Md.). Cells were grown as monolayers in McCoy's media each supplemented with 10% FBS (each from Life Technologies, Inc., Bethesda, Md.) and maintained at 37° C. in a humidified atmosphere at 5% CO2. Tumor cells for implantation into athymic mice were harvested near confluence by incubation with 0.05% Trypsin-EDTA. Cells were pelleted at 450×g for 5-10 minutes and the cell pellets were re-suspended in serum-free McCoy's medium supplemented with 50% matrigel. Tumor cells (1×10^6 cells/animal) were implanted s.c. into the hindflank region of each mouse on day 0 and allowed to grow to the designated size prior to the administration of compound for each experiment.
Tumor growth inhibition: Treatment was initiated when tumors were approximately 200 mm3 in size. Compound of Example 2 or vehicle (methyl cellulose, MC) was administered as an oral gavage daily or every other day at 10 mL/kg. Tumors were measured using Vernier calipers, and tumor volumes were calculated utilizing the formula length×width2×0.4. Tumor volume was measured on the indicated days, with the median tumor volume indicated for each group of 12 animals; median±SEM. At the end of the study, the maximum percent tumor growth inhibition was calculated as 100×(tumor volumefinal−tumor volumeinitial) for Compound 1f Example 2-treated group/(tumor volumefinal−tumor volumeinitial) for vehicle group on day 39 and tumor growth delay was calculated as median […] when median tumor volume reached 1250 mm^3.
Tumor growth delay: Treatment with Compound of Example 2 began on day 11 when tumors reached a volume of ˜200 mm^3 and continued for 28 days until the control tumors reached evaluation size (1250 mm^3). Tumor measurement continued until treated tumors reached evaluation size (1250 mm^3) in order to assess tumor growth delay. Compound of Example 2 was administered to tumor-bearing mice by oral gavage as a solution in MC in 10 mL/kg volume and compared with vehicle alone administered in the same volume.

Row | Structure (SMILES) | Ki [1] | EC50 [2] | further results
1 | CN(C)C[C@@H](OC(=O)N1Cc2c(NC(=O)c3ccc(F)cc3)n[nH]c2C1(C)C)c1ccccc1 [Example 2, (1S)-2-(dimethylamino)-1-phenylethyl 3-[(4-fluorobenzoyl)amino]-6,6-dimethyl-4,6-dihydropyrrolo[3,4-c]pyrazole-5(1H)-carboxylate] | 16.7 nM | 9.7 nM | Tumor growth inhibition (TGI) % TGImax d39 ([3]; 50 mg/kg QD): 50%; Tumor growth delay T-C1250 mm3 ([3]; 50 mg/kg QD): 12.2 days; Tumor growth inhibition (TGI) % TGImax d39 ([3]; 75 mg/Kg/QOD): 37% and 36.6%; Tumor growth delay T-C1250 mm3 ([3]; 75 mg/Kg/QOD): 9.8 days; in vivo tumor growth inhibition/delay (in words) ([3]; HCT116 xenografts in athymic mice, oral): showed in vivo tumor growth inhibition; also recorded: inhibited/delayed growth; general health and body weight of treated mice ([3]; throughout the 28 day treatment cycle, oral): generally appeared healthy and continued to gain weight
2 | CN(C)CC(CC(=O)N1Cc2c(NC(=O)c3cccs3)n[nH]c2C1(C)C)c1ccc(Cl)cc1 (stereo not drawn) [Example 97, N-{5-[3-(4-chlorophenyl)-4-(dimethylamino)butanoyl]-6,6-dimethyl-1,4,5,6-tetrahydropyrrolo[3,4-c]pyrazol-3-yl}thiophene-2-carboxamide] | 110 nM | 1510 nM | 
3 | CC1(C)c2[nH]nc(NC(=O)c3cc4ccccc4s3)c2CN1C(=O)N[C@H](CO)c1ccccc1 [Example 99, 3-[(1-benzothien-2-ylcarbonyl)amino]-N-[(1S)-2-hydroxy-1-phenylethyl]-6,6-dimethyl-4,6-dihydropyrrolo[3,4-c]pyrazole-5(1H)-carboxamide] | 67.9 nM | 423 nM | 
4 | CC1(C)c2[nH]nc(NC(=O)c3cccs3)c2CN1C(=O)N[C@H](CO)c1ccccc1 [Example 100, N-[(1S)-2-hydroxy-1-phenylethyl]-6,6-dimethyl-3-[(2-thienylcarbonyl)amino]-4,6-dihydropyrrolo[3,4-c]pyrazole-5(1H)-carboxamide] | 108 nM | 178 nM | 
5 | CN(C)C[C@@H](NC(=O)N1Cc2c(NC(=O)c3nc4ccccc4s3)n[nH]c2C1(C)C)c1ccccc1 [Example 104, (S)-N-(5-((2-(dimethylamino)-1-phenylethyl)carbamoyl)-6,6-dimethyl-1,4,5,6-tetrahydropyrrolo[3,4-c]pyrazol-3-yl)benzo[d]thiazole-2-carboxamide] | 89 nM | 9 nM | 
6 | COC(C)(C)C(=O)Nc1n[nH]c2c1CN(C(=O)O[C@H](CN(C)C)c1ccccc1)C2(C)C [Example 116, (S)-2-(dimethylamino)-1-phenylethyl 3-(2-methoxy-2-methylpropanamido)-6,6-dimethylpyrrolo[3,4-c]pyrazole-5(1H,4H, 6H)-carboxylate] | 212 nM | 50 nM | 
7 | CO[C@H](C)C(=O)Nc1n[nH]c2c1CN(C(=O)O[C@H](CN(C)C)c1ccccc1)C2(C)C [Example 117, (S)-2-(dimethylamino)-1-phenylethyl 3-((R)-2-methoxypropanamido)-6,6-dimethylpyrrolo[3,4-c]pyrazole-5(1H,4H,6H)-carboxylate] | 357 nM | 8.8 nM | 
8 | CN(C)C[C@@H](OC(=O)N1Cc2c(NC(=O)C3CCOC3)n[nH]c2C1(C)C)c1ccccc1 (stereo partly drawn) [Example 119, (S)-2-(dimethylamino)-1-phenylethyl 6,6-dimethyl-3-(tetrahydrofuran-3-carboxamido)pyrrolo[3,4-c]pyrazole-5(1H,4H,6H)-carboxylate] | 260 nM | 52 nM | 
9 | CNC[C@@H](OC(=O)N1Cc2c(NC(=O)c3ccc(F)cc3)n[nH]c2C1(C)C)c1ccccc1 [Example 121, (S)-2-(methylamino)-1-phenylethyl 3-(4-fluorobenzamido)-6,6-dimethylpyrrolo[3,4-c]pyrazole-5(1H,4H,6H)-carboxylate] | 16.2 nM | 124 nM | 
